# Entries after “also recorded” stand apart in the source; their conditions may differ.
# What was measured:
# Male Balb/c Mice [1] = test: Bleed time after tail amputation in mice, GTS-21 (Example 10); format: in vivo; settings: GTS-21 4 mg/kg IP vs PBS, 1 hour before, anesthetized, 2 mm of tail amputated
# Protocol: Male Balb/c mice (around 25 g) were injected (intraperitoneally (IP)) with cholinergic agonist GTS-21 (4 mg/kg in 125 µL PBS) or PBS (vehicle control, 125 µL). 1 hour later, mice were anesthetized with ketamine/xylazine (100 mg/kg/10 mg/kg, intraperitoneally).
# Male Balb/c Mice [2] = test: Effect of alpha-7 antagonist MLA given before nicotine on bleed time (Example 13); format: in vivo
# Protocol: Male Balb/c mice (around 25 g) were divided into three groups: A, B and C. Groups A and C were injected with the alpha-7 antagonist methyllycaconitine, (MLA; 4 mg/kg, IP, in 200 µL PBS), group B was injected with PBS (vehicle control, 125 µ1). 15 minutes later, Group A was injected with PBS (vehicle control, 125 µl) and groups B and C were injected with nicotine (0.3 mg/kg in 125 µL PBS). 30 minutes later, mice were anesthetized (ketamine [100 mg/kg, IP] and xylazine [10 mg/kg, IP]). After immersing tails in 37° C. saline for 5 minutes to normalize vasodilatory state, 2 mm of tail was amputated with a scalpel, and returned to the saline bath (modified from Nagashima et al., Journal of Clinical Investigation (109) 101-110, (2002); Snyder et al., Nature Medicine (5), 64-70, (1999).
# Once bleeding stopped, animals were euthanized by CO2 asphyxiation. Data were recorded in seconds, and are presented as mean+/− SE. Student's t-test was used for statistical analysis.
compound,measurement,setting,value
COc1ccc(/C=C2\CCCN=C2c2cccnc2)c(OC)c1 [GTS-21],total bleeding time,Male Balb/c Mice [1],significantly reduced the bleed time; also recorded: decrease in bleed time
"CCN1C[C@]2(COC(=O)c3ccccc3N3C(=O)C[C@H](C)C3=O)CC[C@H](OC)[C@@]34[C@@H]5C[C@H]6[C@H](OC)[C@@H]5[C@](O)(C[C@@H]6OC)[C@@](O)([C@@H](OC)[C@H]23)[C@@H]14 [MLA, methyllycaconitine]",effect on nicotine induced reduction of bleed time,Male Balb/c Mice [2]; MLA 4 mg/kg IP 15 minutes before nicotine 0.3 mg/kg,inhibited nicotine induced reduction of bleed time
CN1CCCC1c1cccnc1 (stereo not drawn) [nicotine],total bleeding time,"Male Balb/c Mice [2]; nicotine 0.3 mg/kg after PBS pretreatment, 30 minutes later anesthetized, 2 mm of tail amputated",reduction in bleed time
